Experimental data as given in PMC2631555 (Bioorganic & medicinal chemistry letters, 2008).

Legend:
[1] = Solubility in PBS + 5% DMSO; conditions: 2 h, room temperature
[2] = PAMPA
Vero cells = conditions: read-out: Vero EC50; 48 h exposure, CellTiter-Glo
tubulin = conditions: 10 µM compound; purified tubulin 7.2 µM, GTP, 37°C, 0.5% DMSO

SMILES: COc1cc2c(c(OC)c1OC)-c1ccc(OC)c(=O)cc1[C@@H](NC(C)=O)CC2 [Colchicine]
- Solubility [1]: highly soluble

SMILES: COc1cc2c(c(OC)c1OC)-c1ccc(OC)c(=O)cc1[C@@H](NC(=O)CCCCCNC(=O)COc1ccc(/C=C/C3=[N+]4C(=Cc5ccc(-c6ccc[nH]6)n5[B-]4(F)F)C=C3)cc1)CC2 [colchicine-646]
- Permeability [2]: <10 10^-6 cm/s
- EC50 (Vero cells): > 10 µM

SMILES: CC(=O)O[C@H]1C(=O)[C@@]2(C)[C@H]([C@H](OC(=O)c3ccccc3)[C@]3(O)C[C@H](OC(=O)[C@H](O)[C@@H](NC(=O)c4ccccc4)c4ccccc4)C(C)=C1C3(C)C)[C@]1(OC(C)=O)CO[C@@H]1C[C@@H]2O [paclitaxel]
- Microtubule formation compared with untreated tubulin (tubulin): enhanced
